# Literature values, collected in PMC8158804 (ACS Omega, 2021).
# Details: critical aggregation concentration, fluorimetry, pure water
row,Substance,CAC (−log M)
1,AcIIIKGVPGVGKNH2 [IK-K11],2.58 −log M
2,AcGAAVILRRNH2,1.52 −log M
3,AcIIIKGVPGVGVPGVGKNH2 [IK-K16],3.03 −log M
4,RFRFRF [[RF]3],2.64 −log M
5,RFRFRFRF [[RF]4],3.52 −log M
6,AcIIIGVPGVGKKNH2 [IKK11],2.66 −log M
7,AcIIIGVPGVGVPGVGKKNH2 [IKK16],3.13 −log M

# Other lines, results leading:
row,CAC (−log M),Substance
1,4.40 −log M,RFRF [[RF]2]
2,2.10 −log M,AcKGVPGVGKNH2 [K-K8]
3,4.70 −log M,RFRFRFRFRF [[RF]5]
4,2.10 −log M,AcGVPGVGKKNH2 [KK8]
5,4.83 −log M,V6K2GRGDS

# Details: critical aggregation concentration, conductivity, pure water
row,Substance,CAC (−log M)
1,AcLIIKNH2 [LI2K],2.99 −log M
2,Ac-GAVILEE,3.15 −log M
3,Ac-GAVILEE-NH2,3.10 −log M
